Measurements: US10508077B2 (FORMA Therapeutics, Inc., priority 2015, dated 2019)
pIC50: −log10 of the molar value. Where a name gives a salt, the structure may show the parent alone.

Columns and labels:
[1] = target: T1, Full length human recombinant HDAC8 protein (Homo sapiens, UniProt Q9BY41); assay: In vitro histone deacetylase assay: enzymatic HDAC8 assay, electrophoretic mobility shift; type: biochemical; details: substrate RHKK(Ac)-NH2, 1 nM enzyme, compounds listed under IC50 range headings
T1 construct: Full length human recombinant HDAC8 protein was expressed in baculoviral system; made in house
T1 sequence (Q9BY41 1-377): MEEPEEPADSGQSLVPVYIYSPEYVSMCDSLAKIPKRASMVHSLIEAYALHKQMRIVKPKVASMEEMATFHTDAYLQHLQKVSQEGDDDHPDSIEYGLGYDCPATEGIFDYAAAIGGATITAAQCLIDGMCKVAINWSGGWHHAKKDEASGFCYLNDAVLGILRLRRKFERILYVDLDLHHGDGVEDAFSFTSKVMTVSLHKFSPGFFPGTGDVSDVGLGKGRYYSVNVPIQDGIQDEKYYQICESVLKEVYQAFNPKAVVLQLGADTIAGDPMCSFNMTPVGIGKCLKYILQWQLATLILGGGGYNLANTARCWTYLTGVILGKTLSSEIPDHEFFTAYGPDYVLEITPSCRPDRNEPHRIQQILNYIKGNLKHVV
In short: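 Baculovirus-expressed full-length human HDAC8 (1 nM) deacetylated 2 µM fluorescent RHKK(Ac)-NH2 peptide in pH 7.5 HEPES, 1% DMSO, at 25 °C, with 12 compound concentrations at 3× spacing. SDS-quenched; product and substrate resolved by microfluidic electrophoresis, P/(S+P) converted to percent inhibition, and IC50 obtained by 4-parameter fit.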

[2] = target: T2, Recombinant N-terminal GST tag full-length human HDAC8 (Homo sapiens, UniProt Q9BY41); assay: HDAC8 probe binding assay, time resolved fluorescence (TRF); details: fluorescein labeled pan-HDAC inhibitor probe, 16 hours incubation, compounds listed under IC50 range headings
T2 construct: Recombinant N-terminal GST tag full-length human HDAC8; purchased SignalChem H90-30G-1000; host or cells: Sf9 insect cells (baculovirus)
T2 sequence (Q9BY41 1-377): T1 sequence (Q9BY41 1-377)
In short: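 TR-FRET probe displacement using GST-tagged full-length human HDAC8 (Sf9-expressed, 2.5 nM) with 1.5 nM fluorescein-labelled pan-HDAC inhibitor probe and anti-GST terbium, in HEPES pH 7.5 buffer with GSH, BGG, Triton X-100. Compounds 25 μM–1.3 nM, 10-point; 16 h at room temperature. IC50 from 4-parameter fit of % inhibition versus no-enzyme and DMSO controls.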

| SMILES | pIC50 [1] | pIC50 [2] |
| --- | --- | --- |
| O=C(/C=C/c1ccccc1NC(=O)c1ccccc1Oc1cccnc1)NO [Example I-314, (E)-N-(2-(3-(hydroxyamino)-3-oxoprop-1-en-1-yl)phenyl)-2-(pyridin-3-yloxy)benzamide] | > 6.00 | ≥ 6.00 |
| Cc1nc(C)c(CN2CCN(c3ccccc3/C=C/C(=O)NO)CC2)s1 [Example I-315, (E)-3-(2-(4-((2,4-dimethylthiazol-5-yl)methyl)piperazin-1-yl)phenyl)-N-hydroxyacrylamide] | > 6.00 | ≥ 6.00 |
| Cc1cc(CN2C[C@@H]3C[C@H]2CN3c2ccccc2/C=C/C(=O)NO)n(C)n1 [Example I-317, (E)-3-(2-((1S,4S)-5-((1,3-dimethyl-1H-pyrazol-5-yl)methyl)-2,5-diazabicyclo[2.2.1]heptan-2-yl)phenyl)-N-hydroxyacrylamide] | > 6.00 | ≥ 6.00 |
| O=C(/C=C/c1ccccc1NC(=O)c1cnc(N2CCOCC2)s1)NO [Example I-319, (E)-N-(2-(3-(hydroxyamino)-3-oxoprop-1-en-1-yl)phenyl)-2-morpholinothiazole-5-carboxamide] | > 6.00 | ≥ 6.00 |
| Cc1onc(-c2ccccc2Cl)c1C(=O)Nc1ccccc1/C=C/C(=O)NO [Example I-320, (E)-3-(2-chlorophenyl)-N-(2-(3-(hydroxyamino)-3-oxoprop-1-en-1-yl)phenyl)-5-methylisoxazole-4-carboxamide] | > 6.00 | ≥ 6.00 |
| O=C(/C=C/c1ccccc1N1CCN(C(=O)C2(c3cccnc3)CC2)CC1)NO [Example I-321, (E)-N-hydroxy-3-(2-(4-(1-(pyridin-3-yl)cyclopropane-1-carbonyl)piperazin-1-yl)phenyl)acrylamide] | > 6.00 | ≥ 6.00 |
| Cc1onc(-c2ccc(F)cc2)c1C(=O)Nc1ccccc1/C=C/C(=O)NO [Example I-323, (E)-3-(4-fluorophenyl)-N-(2-(3-(hydroxyamino)-3-oxoprop-1-en-1-yl)phenyl)-5-methylisoxazole-4-carboxamide] | > 6.00 | ≥ 6.00 |
| O=C(NO)/C(F)=C/c1ccccc1NC(=O)c1cccc(C(F)(F)F)c1 [Example I-324, (Z)—N-(2-(2-fluoro-3-(hydroxyamino)-3-oxoprop-1-en-1-yl)phenyl)-3-(trifluoromethyl)benzamide] | > 6.00 | ≥ 6.00 |
| O=C(NO)/C(F)=C/c1ccccc1NC(=O)c1ccccc1Oc1ccccc1 [Example I-325, (Z)—N-(2-(2-fluoro-3-(hydroxyamino)-3-oxoprop-1-enyl)phenyl)-2-phenoxybenzamide hydrochloride] | > 6.00 | ≥ 6.00 |
| CN1CCN(c2ccccc2/C=C/C(=O)NO)CC1 [Example I-326, (E)-N-hydroxy-3-(2-(4-methylpiperazin-1-yl)phenyl)acrylamide] | > 6.00 | ≥ 6.00 |
| O=C(/C=C/c1ccccc1N1CCN(S(=O)(=O)c2ccccc2)CC1=O)NO [Example I-526, (E)-N-hydroxy-3-(2-(2-oxo-4-(phenylsulfonyl)piperazin-1-yl)phenyl)acrylamide] | > 6.00 | ≥ 6.00 |
| O=C(/C=C/c1ccccc1N1CCN(S(=O)(=O)c2ccc(OC(F)(F)F)cc2)CC1=O)NO [Example I-527, (E)-N-hydroxy-3-(2-(2-oxo-4-((4-(trifluoromethoxy)phenyl)sulfonyl)piperazin-1-yl)phenyl)acrylamide] | > 6.00 | ≥ 6.00 |
| COc1ccc(NC(=O)N2CCN(c3ccccc3/C=C/C(=O)NO)C(=O)C2)cc1 [Example I-529, (E)-4-(2-(3-(hydroxyamino)-3-oxoprop-1-en-1-yl)phenyl)-N-(4-methoxyphenyl)-3-oxopiperazine-1-carboxamide] | > 6.00 | ≥ 6.00 |
| O=C(/C=C/c1ccccc1N1CCN(Cc2ccc(F)cc2)CC1=O)NO [Example I-530, (E)-3-(2-(4-(4-fluorobenzyl)-2-oxopiperazin-1-yl)phenyl)-N-hydroxyacrylamide] | > 6.00 | ≥ 6.00 |
| Cc1ccc(N2CCN(c3ccccc3/C=C/C(=O)NO)C(=O)C2)cc1 [Example I-533, (E)-N-hydroxy-3-(2-(2-oxo-4-(p-tolyl)piperazin-1-yl)phenyl)acrylamide] | > 6.00 | ≥ 6.00 |
| O=C(/C=C/c1ccccc1NC(=O)c1ccccc1Oc1ccc(Cl)cc1F)NO [Example I-534, (E)-2-(4-chloro-2-fluorophenoxy)-N-(2-(3-(hydroxyamino)-3-oxoprop-1-en-1-yl)phenyl)benzamide] | > 6.00 | ≥ 6.00 |
| Cc1ccc(Oc2ccccc2C(=O)Nc2ccccc2/C=C/C(=O)NO)cn1 [Example I-535, (E)-N-(2-(3-(hydroxyamino)-3-oxoprop-1-en-1-yl)phenyl)-2-((6-methylpyridin-3-yl)oxy)benzamide] | > 6.00 | ≥ 6.00 |
| O=C(/C=C/c1ccccc1NC(=O)c1cccc(Oc2ccccc2)c1)NO [Example I-536, (E)-N-(2-(3-(hydroxyamino)-3-oxoprop-1-en-1-yl)phenyl)-3-phenoxybenzamide] | > 6.00 | ≥ 6.00 |
| O=C(/C=C/c1ccccc1NC(=O)c1ncccc1Oc1ccccc1)NO [Example I-537, N-{2-[(1E)-2-(hydroxycarbamoyl)eth-1-en-1-yl]phenyl}-3-phenoxypyridine-2-carboxamide] | > 6.00 | ≥ 6.00 |
| CC(C)(C)OC(=O)N1CCCCC12CCN(c1ccccc1/C=C/C(=O)NO)CC2 [Example I-538, tert-butyl (E)-9-(2-(3-(hydroxyamino)-3-oxoprop-1-en-1-yl)phenyl)-1,9-diazaspiro[5.5]undecane-1-carboxylate] | > 6.00 | ≥ 6.00 |
| O=C(/C=C/c1ccccc1NC(=O)c1ncsc1Oc1ccccc1)NO [Example I-539, N-{2-[(1E)-2-(hydroxycarbamoyl)eth-1-en-1-yl]phenyl}-5-phenoxy-1,3-thiazole-4-carboxamide] | > 6.00 | ≥ 6.00 |
| O=C(/C=C/c1ccccc1NC(=O)c1ccccc1Oc1ccc(C(F)(F)F)nc1)NO [Example I-540, (E)-N-(2-(3-(hydroxyamino)-3-oxoprop-1-en-1-yl)phenyl)-2-((6-(trifluoromethyl)pyridin-3-yl)oxy)benzamide] | > 6.00 | ≥ 6.00 |
| CC(C)(C)OC(=O)N1CCCC12CCN(c1ccccc1/C=C/C(=O)NO)C2 (stereo not shown) [Example I-541, tert-butyl (E)-7-(2-(3-(hydroxyamino)-3-oxoprop-1-en-1-yl)phenyl)-1,7-diazaspiro[4.4]nonane-1-carboxylate] | > 6.00 | ≥ 6.00 |
| CC(C)(C)OC(=O)N1CC2(CCCN2c2ccccc2/C=C/C(=O)NO)C1 [Example I-542, tert-butyl (E)-5-(2-(3-(hydroxyamino)-3-oxoprop-1-en-1-yl)phenyl)-2,5-diazaspiro[3.4]octane-2-carboxylate] | > 6.00 | ≥ 6.00 |
| CC(C)(C)OC(=O)N1CCCCC12CCN(c1ccccc1/C=C/C(=O)NO)C2 (stereo not shown) [Example I-543, tert-butyl (E)-2-(2-(3-(hydroxyamino)-3-oxoprop-1-en-1-yl)phenyl)-2,6-diazaspiro[4.5]decane-6-carboxylate] | > 6.00 | ≥ 6.00 |
| O=C(/C=C/c1ccccc1NC(=O)c1nc(Oc2ccccc2)cs1)NO [Example I-544, N-{2-[(1E)-2-(hydroxycarbamoyl)eth-1-en-1-yl]phenyl}-4-phenoxy-1,3-thiazole-2-carboxamide] | > 6.00 | ≥ 6.00 |
